Reference: patent US10550109B2, “Crystal form of brexpiprazole and preparation method therefor” (Zhejiang Huahai Pharmaceutical Co., Ltd, priority 2016, dated 2020)

Assay: Comparison of stability (water content over time) of brexpiprazole solid forms at 25° C. and 60% ambient humidity
Format: physicochemical
Protocol: The comparation of the stability of brexpiprazole in the crystal form I, the dihydrated crystal form, the anhydrous crystal form and the amorphous form is shown in Table 1. The test in Table 1 was carried out at 25° C. and 60% ambient humidity.

Structure (SMILES) | Water Content (after 1 month) (dihydrate) | Water Content (after 2 months) (dihydrate) | Water Content (after 3 months) (dihydrate) | Water Content (initial) (dihydrate) | Water Content (after 1 month) | Water Content (after 2 months) | Water Content (after 3 months) | Water Content (initial)
O=c1ccc2ccc(OCCCCN3CCN(c4cccc5sccc45)CC3)cc2[nH]1 [Dihydrated crystal form, 7-[4-(4-benzo[b]thiophen-4-yl-piperazin-1-yl)butoxy]-1H-quinolin-2-one dihydrate] | 6.90 wt. % | 7.10 wt. % | 7.50 wt. % | 6.74 wt. % | – | – | – | –
O=c1ccc2ccc(OCCCCN3CCN(c4cccc5sccc45)CC3)cc2[nH]1 [Crystal form I, 7-{4-[4-(1-benzothiophen-4-yl)piperazin-1-yl]butoxy}-1H-quinolin-2-one] | – | – | – | – | 1.27 wt. % | 1.26 wt. % | 1.27 wt. % | 1.24 wt. %
O=c1ccc2ccc(OCCCCN3CCN(c4cccc5sccc45)CC3)cc2[nH]1 [Anhydrous crystal form, 7-[4-(4-benzo[b]thiophen-4-yl-piperazin-1-yl)butoxy]-1H-quinolin-2-one] | – | – | – | – | 0.09 wt. % | 0.21 wt. % | 0.30 wt. % | 0.02 wt. %
O=c1ccc2ccc(OCCCCN3CCN(c4cccc5sccc45)CC3)cc2[nH]1 [Amorphous form, 7-{4-[4-(1-benzothiophen-4-yl)piperazin-1-yl]butoxy}-1H-quinolin-2-one] | – | – | – | – | 0.13 wt. % | 0.22 wt. % | 0.40 wt. % | 0.02 wt. %
